The source made the active and inactive calls.
What was measured:
[1] = HIV-1 Vif–A3G interaction blockers – biochemical, TR-FRET, GST-Vif 1-94, biotin-A3G peptide, dose response retest, primary screen (AID 1117319); format: functional;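 further: TR-FRET signal of purified GST-Vif binding a biotinylated A3G peptide; inhibitors lower the FRET signal by blocking Vif and A3G binding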
[2] = antimalarial activity against Dd2 parasites – SYBR Green fluorescence, erythrocytes, dry powder, set 2, dose response (AID 1159574); format: functional, cell-based
[3] = microbe, parasite or virus in culture; format: functional; conditions: Mycobacterium tuberculosis
[4] = Luminescence Cell-Based Dose Retest to Confirm Inhibitors of Cancer Stem Cells. [Related pubchem assays (depositor defined):AID2717, AID2721]; format: functional; conditions: Homo sapiens
[5] = CellTiter-Glo luminescence survival assay, SW480 colon tumor line, concentration-response curve, half-maximal inhibitory concentration (AID 1117338); format: functional
[6] = RKO cell viability reduction, dose response, CellTiter-Glo luminescence (AID 1117322); format: functional
[7] = cytotoxicity toward HCT116 cells – cell-based, CellTiter-Glo luminescence, IC50, dose response (AID 1117332); format: functional; conditions: HCT-116
[8] = SNU-C1 cell viability reduction, dose response, CellTiter-Glo luminescence (AID 1117323); format: functional, cell-based
[9] = cytotoxicity toward Colo320 cells – cell-based, CellTiter-Glo luminescence, IC50, dose response (AID 1117334); format: functional; conditions: COLO 320
[10] = cytotoxicity toward HT-29 cells – cell-based, CellTiter-Glo luminescence, IC50, dose response (AID 1117330); format: functional
[11] = Reduced DLD-1 viability, concentration-response, CellTiter-Glo luminescence (AID 1117352); format: functional
[12] = HCT116 cell viability decrease, GSK3B pretreatment – CellTiter-Glo, IC50, dose response (AID 1117339); format: functional; conditions: HCT-116
[13] = molecular target: Metabotropic glutamate receptor 5 (Rattus norvegicus, UniProt P31424); assay: Identification of a glycine sulfonamide based non-MPEP site positive allosteric potentiator (PAM) of mGlu5 (calcium_assay).; format: functional
Chain of Metabotropic glutamate receptor 5 (P31424 whole entry): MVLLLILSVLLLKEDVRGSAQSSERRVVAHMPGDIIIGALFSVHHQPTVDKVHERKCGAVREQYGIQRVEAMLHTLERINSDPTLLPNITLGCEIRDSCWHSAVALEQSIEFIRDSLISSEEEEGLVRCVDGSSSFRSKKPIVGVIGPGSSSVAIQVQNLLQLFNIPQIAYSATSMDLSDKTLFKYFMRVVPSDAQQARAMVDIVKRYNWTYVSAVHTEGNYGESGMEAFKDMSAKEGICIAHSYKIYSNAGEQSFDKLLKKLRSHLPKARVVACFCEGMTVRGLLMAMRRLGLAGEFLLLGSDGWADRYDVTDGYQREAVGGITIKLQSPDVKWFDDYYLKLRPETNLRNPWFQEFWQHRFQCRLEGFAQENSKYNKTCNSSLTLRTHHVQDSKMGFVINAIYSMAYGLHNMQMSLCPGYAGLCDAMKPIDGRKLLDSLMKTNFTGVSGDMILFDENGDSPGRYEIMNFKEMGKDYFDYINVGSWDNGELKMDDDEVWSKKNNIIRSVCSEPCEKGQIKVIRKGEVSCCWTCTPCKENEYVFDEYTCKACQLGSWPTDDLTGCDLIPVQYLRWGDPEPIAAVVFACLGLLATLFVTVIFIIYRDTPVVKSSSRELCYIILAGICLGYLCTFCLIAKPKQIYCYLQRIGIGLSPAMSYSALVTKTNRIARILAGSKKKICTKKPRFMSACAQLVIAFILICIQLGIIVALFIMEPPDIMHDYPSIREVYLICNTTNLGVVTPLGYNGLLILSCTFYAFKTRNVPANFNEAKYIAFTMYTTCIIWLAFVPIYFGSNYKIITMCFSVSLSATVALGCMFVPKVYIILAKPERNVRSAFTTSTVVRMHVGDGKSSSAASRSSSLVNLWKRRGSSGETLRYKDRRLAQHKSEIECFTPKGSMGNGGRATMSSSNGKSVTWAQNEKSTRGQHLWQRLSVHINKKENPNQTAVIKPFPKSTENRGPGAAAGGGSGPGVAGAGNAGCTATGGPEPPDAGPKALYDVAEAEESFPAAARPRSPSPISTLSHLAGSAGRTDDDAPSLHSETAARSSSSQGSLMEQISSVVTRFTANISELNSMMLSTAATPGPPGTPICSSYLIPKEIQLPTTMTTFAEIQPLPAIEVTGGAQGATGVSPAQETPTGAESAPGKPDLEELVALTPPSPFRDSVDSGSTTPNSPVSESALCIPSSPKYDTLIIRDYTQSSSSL

[14] = antifungal growth inhibition under osmotic support – sorbitol, alamar blue, dry powder, set 3, mechanism study for C. neoformans lysis project, dose response (AID 743304); format: functional, organism-based
cells [15] = conditions: HEK293
[16] = A Cell Based Secondary Assay To Explore Cytotoxicity of Compounds that Sensitize Mycobacterium Tuberculosis to Beta-Lactam Antibiotics.; format: functional
[17] = viability loss in Vero cells – cytotoxicity control for Vif-APOBEC3G degradation inhibitor project, dose response (AID 1117358); format: functional; conditions: Vero
[18] = molecular target: T1, Heat shock factor protein 1 (Mus musculus, UniProt P38532); assay: enhancement of HSF1-driven luciferase signal – cell-based, NIH3T3, luminescence, dose retest, confirmation (AID 435004); format: functional;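 further: stress induced by proteasome inhibitor MG132 added 30 min after compound; luciferase reporter driven by HSF1 response element in NIH3T3 cells; actives raise luminescence as potentiators of the MG132 stress response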
T1 sequence (P38532 whole entry): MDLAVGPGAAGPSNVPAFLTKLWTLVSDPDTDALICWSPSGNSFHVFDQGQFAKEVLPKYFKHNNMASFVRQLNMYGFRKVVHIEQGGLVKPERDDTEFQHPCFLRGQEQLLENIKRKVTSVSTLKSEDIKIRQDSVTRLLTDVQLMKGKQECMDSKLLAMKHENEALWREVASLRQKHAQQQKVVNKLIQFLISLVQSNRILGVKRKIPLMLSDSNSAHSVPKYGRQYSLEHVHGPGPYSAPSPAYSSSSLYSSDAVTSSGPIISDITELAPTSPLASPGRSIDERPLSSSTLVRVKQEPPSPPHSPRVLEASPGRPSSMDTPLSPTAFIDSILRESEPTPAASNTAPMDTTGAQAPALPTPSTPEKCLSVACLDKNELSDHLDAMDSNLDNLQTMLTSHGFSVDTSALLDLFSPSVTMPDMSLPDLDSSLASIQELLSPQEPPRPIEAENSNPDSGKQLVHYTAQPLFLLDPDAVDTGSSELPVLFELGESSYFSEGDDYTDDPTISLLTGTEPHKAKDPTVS

[19] = viability loss in HepG2 liver cells – cell-based, ATP luminescence, cherry-pick, set 6, cytotoxicity control, dose response (AID 1053125); format: functional
cells [20] = conditions: A549
cells [21] = assay: cells
[22] = miR-122 quantity in Huh7 after inhibitor exposure – cell-based, RT-qPCR, dry powder, orthogonal assay for miR-122 inhibitor project, dose response (AID 687041); format: functional
[23] = molecular target: Solute carrier family 12 member 2/member 5 (Homo sapiens, UniProt P55011+Q9H2X9); assay: KCC2 and NKCC1 inhibition by rubidium flux, cell-based, NKCC1 counter-screen (AID 1734); format: functional, HEK293
[24] = general mammalian cell viability loss – activator set, cherry-pick, cytotoxicity control for miR-122 modulator project, dose response (AID 720690); format: functional, cell-based;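 further: HEK293T human cells scored for general mammalian cytotoxicity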
[25] = viability loss in HEK293 kidney cells – cell-based, cherry-picks, set 5, cytotoxicity control, dose response (AID 1053117); format: functional
[26] = inhibition of fibronectin matrix deposition – AH1F cells, Alexa488-fibronectin fluorescence, cherry-pick, set 2, dose response (AID 1117283); format: functional, cell-based
[27] = molecular target: NAD-dependent protein deacylase sirtuin-5, mitochondrial (Homo sapiens, UniProt Q9NXA8); assay: sirtuin-5 deacylation blockers, concentration series – biochemical, fluorescence imaging, cherry-pick, set 5, dose response (AID 720591);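 further: desuccinylation of succinyl peptide AMC substrate read as fluorescence after trypsin release; potency of inhibitors that lower fluorescence and may act on trypsin instead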
Chain of NAD-dependent protein deacylase sirtuin-5, mitochondrial (Q9NXA8 whole entry): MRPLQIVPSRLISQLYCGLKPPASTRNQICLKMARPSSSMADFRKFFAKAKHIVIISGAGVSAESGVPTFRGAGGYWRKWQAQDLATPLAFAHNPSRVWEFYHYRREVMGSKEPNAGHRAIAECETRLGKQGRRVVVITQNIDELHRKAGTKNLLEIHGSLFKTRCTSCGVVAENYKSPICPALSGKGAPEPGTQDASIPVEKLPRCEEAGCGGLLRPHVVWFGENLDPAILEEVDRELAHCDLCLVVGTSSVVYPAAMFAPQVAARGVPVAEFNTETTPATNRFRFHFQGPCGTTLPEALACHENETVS

[28] = viability loss in MITF-independent A375 cells – cell-based, CellTiter-Glo luminescence, dry powder, set 7, counter-screen for MITF inhibitor project, dose response (AID 624490); format: functional; conditions: A-375
[29] = cytotoxicity in melanoma parental cells – cell-based, CellTiter-Glo, dry powder, set 6, MITF inhibitor project, dose response (AID 624429); format: functional; conditions: SK-MEL-5
[30] = MITF Orthogonal Assay: SK-MEL-5 CTG Assay Measured in Cell-Based System Using Plate Reader - 2084-02_Inhibitor_Dose_DryPowder_Activity_Set5.; format: functional
[31] = MITF Measured in Cell-Based System Using Plate Reader - 2084-01_Inhibitor_Dose_DryPowder_Activity_Set6.; format: functional
[32] = MITF Measured in Cell-Based System Using Plate Reader - 2084-01_Inhibitor_Dose_DryPowder_Activity_Set7.; format: functional
Phospholipase D2 [33] = molecular target: T2, Phospholipase D2 (Homo sapiens, UniProt O14939); assay: PLD2 Cellular Concentration Response Study.; format: functional
T2 sequence (O14939 whole entry): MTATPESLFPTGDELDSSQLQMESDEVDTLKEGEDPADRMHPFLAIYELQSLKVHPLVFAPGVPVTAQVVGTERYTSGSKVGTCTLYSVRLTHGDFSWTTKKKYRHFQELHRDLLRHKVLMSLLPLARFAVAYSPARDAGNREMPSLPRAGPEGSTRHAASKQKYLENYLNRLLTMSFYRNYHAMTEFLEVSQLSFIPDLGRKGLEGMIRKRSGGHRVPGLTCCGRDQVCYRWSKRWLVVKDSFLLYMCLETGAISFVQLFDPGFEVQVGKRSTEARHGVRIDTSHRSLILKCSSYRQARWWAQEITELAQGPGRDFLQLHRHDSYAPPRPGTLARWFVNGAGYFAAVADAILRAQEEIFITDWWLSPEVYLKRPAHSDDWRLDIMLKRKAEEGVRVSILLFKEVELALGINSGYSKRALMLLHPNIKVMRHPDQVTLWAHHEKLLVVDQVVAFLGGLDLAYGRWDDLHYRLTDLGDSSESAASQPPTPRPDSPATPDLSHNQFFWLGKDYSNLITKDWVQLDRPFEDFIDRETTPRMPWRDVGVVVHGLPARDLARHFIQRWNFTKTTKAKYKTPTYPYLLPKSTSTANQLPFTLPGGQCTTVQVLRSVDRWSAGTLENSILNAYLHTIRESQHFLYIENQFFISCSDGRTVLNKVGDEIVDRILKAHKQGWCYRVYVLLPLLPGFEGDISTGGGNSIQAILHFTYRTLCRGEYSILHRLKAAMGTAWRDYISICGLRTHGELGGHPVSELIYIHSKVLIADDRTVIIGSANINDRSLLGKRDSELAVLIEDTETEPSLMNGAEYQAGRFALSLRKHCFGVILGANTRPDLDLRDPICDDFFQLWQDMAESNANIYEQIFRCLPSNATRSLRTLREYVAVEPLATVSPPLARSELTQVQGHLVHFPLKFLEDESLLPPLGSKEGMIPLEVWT

Phospholipase D2 [34] = molecular target: T2, Phospholipase D2; assay: Discovery of PLD2 inhibitors using the Purified Enzyme Concentration Response Assay.; format: functional
Phospholipase D1 [35] = molecular target: T3, Phospholipase D1 (Homo sapiens, UniProt Q13393); assay: PLD1 Cellular Concentration Response Study.; format: functional
T3 sequence (Q13393 whole entry): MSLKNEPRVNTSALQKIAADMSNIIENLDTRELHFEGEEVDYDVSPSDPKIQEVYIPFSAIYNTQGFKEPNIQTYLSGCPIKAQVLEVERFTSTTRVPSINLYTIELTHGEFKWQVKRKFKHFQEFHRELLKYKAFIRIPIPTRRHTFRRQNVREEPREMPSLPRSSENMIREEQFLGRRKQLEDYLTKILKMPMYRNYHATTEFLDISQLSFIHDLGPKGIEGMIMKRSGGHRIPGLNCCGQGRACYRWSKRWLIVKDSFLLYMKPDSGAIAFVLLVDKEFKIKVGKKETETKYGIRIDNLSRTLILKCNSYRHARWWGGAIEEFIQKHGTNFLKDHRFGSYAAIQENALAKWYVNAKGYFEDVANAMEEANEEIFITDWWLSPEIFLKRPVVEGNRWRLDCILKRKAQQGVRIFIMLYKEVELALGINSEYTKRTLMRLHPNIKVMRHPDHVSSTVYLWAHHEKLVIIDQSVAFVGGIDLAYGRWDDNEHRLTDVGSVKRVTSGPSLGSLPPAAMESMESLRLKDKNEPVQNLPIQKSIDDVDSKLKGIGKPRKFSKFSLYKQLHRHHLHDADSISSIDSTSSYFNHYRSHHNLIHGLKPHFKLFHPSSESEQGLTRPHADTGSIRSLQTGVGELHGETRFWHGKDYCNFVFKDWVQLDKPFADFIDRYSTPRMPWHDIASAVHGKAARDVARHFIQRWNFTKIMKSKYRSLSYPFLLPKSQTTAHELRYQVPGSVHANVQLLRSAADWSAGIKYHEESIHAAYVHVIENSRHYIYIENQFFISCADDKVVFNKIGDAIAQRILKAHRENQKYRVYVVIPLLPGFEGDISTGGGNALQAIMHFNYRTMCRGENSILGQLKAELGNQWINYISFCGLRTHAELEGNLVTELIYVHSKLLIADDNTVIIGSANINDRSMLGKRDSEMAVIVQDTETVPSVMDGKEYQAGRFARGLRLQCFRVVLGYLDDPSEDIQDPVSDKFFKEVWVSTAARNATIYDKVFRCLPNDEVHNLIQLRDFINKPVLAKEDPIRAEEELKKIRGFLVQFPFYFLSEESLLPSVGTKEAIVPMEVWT

Phospholipase D1 [36] = molecular target: T3, Phospholipase D1; assay: phospholipase D1 enzyme inhibition confirmation – biochemical, concentration response (AID 743390); format: functional
[37] = viability loss in THP-1 monocytes – THP-1 cells, cytotoxicity control for Vif-APOBEC3G degradation inhibitor project, dose response (AID 1117359); format: functional; conditions: THP-1
[38] = molecular target: Glutathione-S-transferase (Schistosoma japonicum, UniProt Q26513); assay: GST-antibody interaction or FRET quenching – biochemical, TR-FRET, artefact control for Vif-APOBEC3G degradation inhibitor project, dose response (AID 1117362); format: functional
Chain of Glutathione-S-transferase (Q26513 whole entry): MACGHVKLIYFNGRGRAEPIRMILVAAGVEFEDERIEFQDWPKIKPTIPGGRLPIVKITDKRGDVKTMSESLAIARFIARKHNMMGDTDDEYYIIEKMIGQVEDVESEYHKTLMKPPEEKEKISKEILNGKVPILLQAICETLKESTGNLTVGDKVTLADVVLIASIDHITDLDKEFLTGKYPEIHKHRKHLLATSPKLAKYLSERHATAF

O=C(Nc1c2c(nn1-c1ccc(F)cc1)C[S+]([O-])C2)C12CC3CC(CC(C3)C1)C2 (stereo not drawn)
IC50 [1]: > 100 µM (active)

O=C(c1ccccc1F)N1CC(=O)N2[C@H](CO)[C@H](c3ccc(-c4cccnc4)cc3)[C@@H]2C1
AC50 [2]: > 39 µM (inactive)

CC1=C(/C=C/C(C)=C/C=C/C(C)=C/C(=O)Nc2ccc(O)cc2)C(C)(C)CCC1 [FENRETINIDE]
CC50 [3]: 14.4 µM (active) | AC50 [4]: 1.04 µM (active) | IC50 [5]: 4.85 µM (active) | IC50 [6]: 1.72 µM (active) | IC50 [7]: 5.3 µM (inactive) | IC50 [8]: 6.69 µM (inactive) | IC50 [9]: 3.24 µM (active) | IC50 [10]: 2.12 µM (active) | IC50 [11]: 9.49 µM (inactive) | IC50 [12]: 4.95 µM (active)

CS(=O)(=O)N(CC(=O)N1CCc2ccccc21)c1cc(C(F)(F)F)ccc1Cl
EC50 [13]: 10 µM (inconclusive)

COCc1nc2ccccc2n1CCOc1ccc(C(C)(C)C)cc1
AC50 [14]: 52.3 µM (active) | AC50 (cells [15]): 34 µM (active)

O=C(NNC(=O)c1cc(OCC(F)(F)F)ccc1OCC(F)(F)F)c1cccc(C(F)(F)F)c1
CC50 [16]: > 40 µM (active) | CC50 [17]: > 40 µM (active)

COc1ccc(C2C3=C(CCCC3=O)N(CC(=O)O)C3=C2C(=O)CCC3)cc1Cl
EC50 [18]: > 260 µM (inactive) | AC50 [19]: > 52 µM (inactive) | AC50 (cells [20]): > 52 µM (inactive) | AC50 (cells [21]): 2.66 µM (active)

Cc1ccc(S(=O)(=O)Nc2ccc3c4c(cccc24)CC3)c(C)c1
AC50 [22]: 0.567 µM (active)

O=C(/C=C/c1ccccc1)Nc1scc(-c2ccccc2)c1C(=O)O
IC50 [23]: 7.9 µM (active)

CO[C@H]1CN(C)C(=O)c2cc(NC(=O)Nc3cc(Cl)cc(Cl)c3)ccc2OC[C@H](C)NC[C@@H]1C
AC50 [24]: 16.9 µM (active) | AC50 [25]: > 52 µM (inactive) | AC50 [26]: > 70 µM (inactive)

CCC(C)(C)NC(=O)C(c1ccc(F)cc1)N(Cc1ccco1)C(=O)CCC(=O)Nc1ccccn1 (stereo not drawn)
AC50 [27]: > 30 µM (inactive)

CNC1=CC(=O)c2ccccc2C1=O
AC50 [28]: > 70 µM (inactive) | AC50 [29]: 62.6 µM (active) | AC50 [30]: 52.9 µM (active) | AC50 [31]: 11.3 µM (active) | AC50 [32]: 17.2 µM (active)

O=C(NCCN1CCC2(CC1)C(=O)NCN2Cc1cccnc1)c1cc2ccccc2[nH]1
IC50 (Phospholipase D2 [33]): 0.05 µM (active) | IC50 (Phospholipase D2 [34]): 0.94 µM (active) | IC50 (Phospholipase D1 [35]): 3.59 µM (active) | IC50 (Phospholipase D1 [36]): 20 µM (active)

COc1ccc2c(c1)O[C@@H](c1ccc3c(c1)OCO3)[C@H](OC(=O)Nc1cc(OC)c(OC)c(OC)c1)C2=O
CC50 [37]: 6.65 µM (active) | IC50 [38]: > 100 µM (active)
